Biological target: T1, URAT-1 transporter (Homo sapiens, UniProt Q96S37)
T1 construct: expressed in transfected cells
Test: URAT-1 inhibitor activity: [14C]-uric acid uptake into CHO-URAT1(L)GFP#8 (CHO#8) cells, scintillation proximity
Format: cell-based
Procedure, shortened: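 CHO cells stably expressing human URAT1 long isoform C-terminally fused to eGFP, preincubated 1 hour in chloride-containing buffer, then 15 minutes with compound (0–10 μM, 0.25% DMSO) in chloride-free buffer pH 7.4. [14C]-uric acid at 30 nM final added; uptake read by scintillation proximity after three hours at room temperature, dark.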

T1 sequence (Q96S37 with tags, fused parts or gaps): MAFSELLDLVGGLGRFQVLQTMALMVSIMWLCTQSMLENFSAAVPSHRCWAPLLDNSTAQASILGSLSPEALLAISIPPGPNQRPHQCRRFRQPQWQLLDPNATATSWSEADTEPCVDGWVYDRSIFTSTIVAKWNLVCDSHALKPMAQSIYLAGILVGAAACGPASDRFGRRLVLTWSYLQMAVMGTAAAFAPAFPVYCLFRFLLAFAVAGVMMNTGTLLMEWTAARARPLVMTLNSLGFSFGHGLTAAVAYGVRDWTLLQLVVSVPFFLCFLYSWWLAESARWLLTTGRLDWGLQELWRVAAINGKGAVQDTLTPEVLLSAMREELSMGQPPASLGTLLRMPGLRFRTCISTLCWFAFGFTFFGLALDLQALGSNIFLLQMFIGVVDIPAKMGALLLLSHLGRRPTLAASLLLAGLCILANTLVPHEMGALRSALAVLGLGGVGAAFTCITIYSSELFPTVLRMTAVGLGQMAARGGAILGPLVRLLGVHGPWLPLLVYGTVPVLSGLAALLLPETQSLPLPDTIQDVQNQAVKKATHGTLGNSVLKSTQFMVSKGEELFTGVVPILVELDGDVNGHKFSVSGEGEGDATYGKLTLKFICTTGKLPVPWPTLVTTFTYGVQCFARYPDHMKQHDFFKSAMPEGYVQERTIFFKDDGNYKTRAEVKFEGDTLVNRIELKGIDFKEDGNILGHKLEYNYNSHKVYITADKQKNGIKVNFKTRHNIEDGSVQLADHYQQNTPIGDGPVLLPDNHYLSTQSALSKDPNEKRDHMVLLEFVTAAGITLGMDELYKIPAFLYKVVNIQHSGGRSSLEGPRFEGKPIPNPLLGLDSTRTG

| IC50 | Compound |
| --- | --- |
| > 10 µM | O=S(=O)(Nc1nncs1)c1ccc(Oc2ccc(F)c(F)c2)cc1Cl [Example 249, 2-chloro-4-(3,4-difluorophenoxy)-N-(1,3,4-thiadiazol-2-yl)benzenesulfonamide] |
| 1.88 µM | N#Cc1ccc(Oc2c(F)cc(S(=O)(=O)Nc3ncns3)cc2Br)cc1Cl [Example 250, 3-bromo-4-(3-chloro-4-cyanophenoxy)-5-fluoro-N-(1,2,4-thiadiazol-5-yl)benzenesulfonamide] |
| 7.54 µM | CC(C)Oc1ncc(Oc2ccc(S(=O)(=O)Nc3nncs3)cc2C#N)cc1Cl [Example 333] |
| 2.03 µM | N#Cc1cc(S(=O)(=O)Nc2nncs2)ccc1Oc1cnc(OC(F)F)c(Cl)c1 [Example 334] |
| 3.26 µM | CC(Oc1ncc(Oc2ccc(S(=O)(=O)Nc3nncs3)cc2C#N)cc1Cl)C(F)(F)F (stereo not shown) [Example 335] |
| 3.91 µM | N#Cc1cc(S(=O)(=O)Nc2nncs2)ccc1Oc1cnc(OC2CCC2)c(Cl)c1 [Example 336] |
| 0.112 µM | Cc1cc(Oc2ccc(S(=O)(=O)Nc3nncs3)cc2C#N)cc(C)c1C#N [Example 337, 3-cyano-4-(4-cyano-3,5-dimethylphenoxy)-N-(1,3,4-thiadiazol-2-yl)benzenesulfonamide] |
| 0.797 µM | COc1ncc(Oc2ccc(S(=O)(=O)Nc3nncs3)cc2C#N)cc1Cl [Example 338] |
| > 10 µM | CC(C)(F)COc1ncc(Oc2ccc(S(=O)(=O)Nc3nncs3)cc2C#N)cc1Cl [Example 339] |
| 0.484 µM | Cc1nnc(NS(=O)(=O)c2ccc(Oc3ccc(C#N)c(Cl)c3)c(C#N)c2)s1 [Example 340, 4-(3-chloro-4-cyanophenoxy)-3-cyano-N-(5-methyl-1,3,4-thiadiazol-2-yl)benzenesulfonamide] |
| 0.009 µM | N#Cc1cc(S(=O)(=O)Nc2nncs2)ccc1Oc1ccc(CO)c(Cl)c1 [Example 341, 4-[3-chloro-4-(hydroxymethyl)phenoxy]-3-cyano-N-(1,3,4-thiadiazol-2-yl)benzenesulfonamide] |
| 0.565 µM | N#Cc1cc(S(=O)(=O)Nc2nccs2)ccc1Oc1ccc(Cl)cc1OC(F)(F)F [compound 162] |
| 0.681 µM | N#Cc1cc(S(=O)(=O)Nc2nccs2)ccc1Oc1ccc(Cl)cc1C(F)(F)F [compound 163] |
| > 10 µM | N#Cc1cc(S(=O)(=O)Nc2nccs2)ccc1Oc1ccc(OC(F)(F)F)cc1Br [compound 164] |
| 0.505 µM | N#Cc1cc(S(=O)(=O)Nc2nccs2)ccc1Oc1ccc(I)cc1 [compound 165] |
| 2.68 µM | N#Cc1cc(S(=O)(=O)Nc2nccs2)ccc1Oc1ccc(C(F)(F)F)cc1Br [compound 166] |
| 0.166 µM | N#Cc1cc(S(=O)(=O)Nc2nccs2)ccc1Oc1cccc(I)c1 [compound 167] |
| 0.161 µM | N#Cc1cc(S(=O)(=O)Nc2nccs2)ccc1Oc1ccc(Br)c(F)c1 [compound 168] |
| 0.073 µM | N#Cc1cc(S(=O)(=O)Nc2nccs2)ccc1Oc1ccc(Cl)c(I)c1 [compound 169] |
| > 1.26 µM | N#Cc1cc(S(=O)(=O)Nc2nccs2)ccc1Oc1ccc(Br)cc1F [compound 170] |
| 0.671 µM | N#Cc1cc(S(=O)(=O)Nc2nccs2)ccc1Oc1ccc(Br)nc1 [compound 171] |
| 0.917 µM | N#Cc1cc(S(=O)(=O)Nc2nccs2)ccc1Oc1ccc(Cl)nc1 [compound 172] |
| > 3.66 µM | COc1ccc(Oc2ccc(S(=O)(=O)Nc3nccs3)cc2C#N)cn1 [compound 173] |
| 0.237 µM | CC(C)c1cc(C#N)cc(Oc2ccc(S(=O)(=O)Nc3nccs3)cc2C#N)c1 [compound 174] |
| > 5.44 µM | N#Cc1cc(S(=O)(=O)Nc2nccs2)ccc1Oc1cccc(CCO)c1 [compound 175] |
| > 6 µM | N#Cc1cc(S(=O)(=O)Nc2nccs2)ccc1Oc1ccccc1CCO [compound 176] |

| IC50 | Compound |
| --- | --- |
| 0.584 µM | N#Cc1cc(S(=O)(=O)Nc2nccs2)ccc1Oc1cccc(CO)c1 [compound 177] |
| 0.645 µM | N#Cc1cc(S(=O)(=O)Nc2nccs2)ccc1Oc1ccc(I)cc1F [compound 178] |
| 0.121 µM | CCc1cc(F)ccc1Oc1ccc(S(=O)(=O)Nc2nccs2)cc1C#N [compound 179] |
| 0.814 µM | N#Cc1cc(S(=O)(=O)Nc2nccs2)ccc1Oc1cccc(Cl)c1C#N [compound 180] |
| 1.22 µM | N#Cc1cc(S(=O)(=O)Nc2nccs2)ccc1Oc1ccccc1Cl [compound 181] |
| 1.33 µM | N#Cc1cc(S(=O)(=O)Nc2nccs2)ccc1Oc1ccccc1Br [compound 182] |
| > 6.03 µM | N#Cc1cc(S(=O)(=O)Nc2nccs2)ccc1Oc1ccccc1F [compound 183] |
| > 6.24 µM | N#Cc1cc(S(=O)(=O)Nc2nccs2)ccc1Oc1ccc(N)cc1 [compound 184] |
| 0.834 µM | N#Cc1cc(Oc2ccc(S(=O)(=O)Nc3ncc(Cl)s3)cc2C#N)ccc1F [compound 193] |
| > 7.15 µM | N#Cc1cc(Oc2ccc(S(=O)(=O)Nc3ncns3)cc2F)ccc1F [compound 194] |
| 2.24 µM | O=S(=O)(Nc1ncns1)c1ccc(Oc2ccc(F)c(F)c2)c(F)c1 [compound 195] |
| 1.58 µM | O=S(=O)(Nc1ncns1)c1cc(F)c(Oc2ccc(F)c(F)c2)cc1F [compound 196] |
| 0.225 µM | N#Cc1cc(S(=O)(=O)Nc2ncc(Cl)s2)ccc1Oc1ccc(F)c(F)c1 [compound 197, N-(5-chloro-1,3-thiazol-2-yl)-3-cyano-4-(3,4-difluorophenoxy)benzenesulfonamide] |
| 2.19 µM | O=S(=O)(Nc1ncns1)c1cc(F)c(Oc2ccc(F)c(F)c2)c(F)c1 [compound 198] |
| > 6.37 µM | N#Cc1cc(Oc2ccc(S(=O)(=O)Nc3nncs3)cc2C#N)ccc1F [compound 199] |
| > 10 µM | Cc1cc(S(=O)(=O)Nc2nncs2)c(F)cc1Oc1ccc(F)c(F)c1 [compound 200] |
| 0.651 µM | N#Cc1cc(S(=O)(=O)Nc2nncs2)ccc1Oc1ccc(F)c(F)c1 [compound 201] |
| 0.823 µM | O=S(=O)(Nc1ncns1)c1ccc(Oc2ccc(F)c(F)c2)c(Cl)c1 [compound 202] |
| 0.387 µM | N#Cc1ccc(Oc2ccc(S(=O)(=O)Nc3nncs3)cc2Cl)cc1Cl [compound 203] |
| 0.317 µM | O=S(=O)(Nc1nncs1)c1ccc(Oc2ccc(F)c(F)c2)c(Cl)c1 [compound 204] |
| > 6.81 µM | N#Cc1cc(Oc2c(F)cc(S(=O)(=O)Nc3ncns3)cc2F)ccc1F [compound 205] |
| > 3.32 µM | N#Cc1cc(Oc2ccc(S(=O)(=O)Nc3ncns3)cc2C#N)ccc1F [compound 206] |
| 0.747 µM | N#Cc1cc(Oc2ccc(S(=O)(=O)Nc3ncns3)cc2Cl)ccc1F [compound 207] |
| 1.79 µM | N#Cc1ccc(Oc2cc(F)c(S(=O)(=O)Nc3ncns3)cc2F)cc1Cl [compound 208, 4-(3-chloro-4-cyanophenoxy)-2,5-difluoro-N-(1,2,4-thiadiazol-5-yl)benzenesulfonamide] |
| > 7.25 µM | O=S(=O)(Nc1nncs1)c1cc(F)c(Oc2ccc(F)c(F)c2)cc1F [compound 209] |
| 1.61 µM | N#Cc1ccc(Oc2ccc(S(=O)(=O)Nc3ncns3)cc2Cl)cc1Cl [compound 210] |

| IC50 | Compound |
| --- | --- |
| 1.11 µM | Cc1cc(S(=O)(=O)Nc2ncns2)ccc1Oc1ccc(F)c(F)c1 [compound 211] |
| 0.782 µM | N#Cc1cc(S(=O)(=O)Nc2ncns2)ccc1Oc1ccc(F)c(F)c1 [compound 212] |
| 2.04 µM | N#Cc1cc(Oc2cc(F)c(S(=O)(=O)Nc3ncns3)cc2F)ccc1F [compound 213] |
| > 10 µM | Cc1cc(S(=O)(=O)Nc2nncs2)c(F)cc1Oc1ccc(F)c(C#N)c1 [compound 214] |
| > 10 µM | N#Cc1ccc(Oc2c(F)cc(S(=O)(=O)Nc3ncns3)cc2F)cc1Cl [compound 215] |
| 1.42 µM | N#Cc1cc(Oc2ccc(S(=O)(=O)Nc3nncs3)cc2Cl)ccc1F [compound 216] |
| > 10 µM | N#Cc1cc(Oc2cc(F)c(S(=O)(=O)Nc3nncs3)cc2F)ccc1F [compound 217] |
| > 1.66 µM | N#Cc1ccc(Oc2ccc(S(=O)(=O)Nc3ncns3)cc2C#N)cc1Cl [compound 218] |
| 0.426 µM | N#Cc1ccc(Oc2ccc(S(=O)(=O)Nc3nncs3)cc2C#N)cc1Cl [compound 219] |
| 0.11 µM | N#Cc1ccc(Oc2ccc(S(=O)(=O)Nc3cscn3)cc2C#N)cc1Cl [compound 220, 4-(3-chloro-4-cyanophenoxy)-3-cyano-N-(1,3-thiazol-4-yl)benzenesulfonamide] |
| > 10 µM | N#Cc1cc(Oc2cc(F)c(S(=O)(=O)Nc3cscn3)cc2F)ccc1F [compound 221] |
| > 3.13 µM | N#Cc1cc(Oc2cc(F)c(S(=O)(=O)Nc3cscn3)cc2Br)ccc1F [compound 222] |
| > 10 µM | Cc1cc(S(=O)(=O)Nc2cscn2)c(F)cc1Oc1ccc(F)c(F)c1 [compound 223] |
| > 10 µM | O=S(=O)(Nc1cscn1)c1ccc(Oc2ccc(F)c(F)c2)cc1F [compound 224] |
| 0.3 µM | N#Cc1ccc(Oc2ccc(S(=O)(=O)Nc3cscn3)c(F)c2)cc1Cl [compound 225] |
| > 10 µM | O=S(=O)(Nc1nccs1)c1ccc(Oc2ccc(F)c(F)c2)c(F)c1 [compound 226] |
| > 10 µM | N#Cc1ccc(Oc2ccc(S(=O)(=O)Nc3cscn3)c(Cl)c2)cc1Cl [compound 227] |
| 0.123 µM | N#Cc1cc(S(=O)(=O)Nc2cscn2)ccc1Oc1ccc(F)c(F)c1 [compound 228, 3-cyano-4-(3,4-difluorophenoxy)-N-(1,3-thiazol-4-yl)benzenesulfonamide] |
| > 10 µM | O=S(=O)(Nc1cscn1)c1cc(Cl)c(Oc2ccc(F)c(F)c2)cc1F [compound 229] |
| > 10 µM | N#Cc1ccc(Oc2cc(F)c(S(=O)(=O)Nc3cscn3)cc2F)cc1Cl [compound 231] |
| 0.513 µM | N#Cc1ccc(Oc2ccc(S(=O)(=O)Nc3nccs3)cc2F)cc1Cl [compound 232] |
| > 10 µM | N#Cc1cc(Oc2ccc(S(=O)(=O)Nc3cscn3)c(F)c2)ccc1F [compound 233] |
| > 10 µM | O=S(=O)(Nc1cscn1)c1cc(Br)c(Oc2ccc(F)c(F)c2)cc1F [compound 234] |
| > 10 µM | N#Cc1cc(Oc2cc(F)c(S(=O)(=O)Nc3cscn3)cc2Cl)ccc1F [compound 235] |

— patent publication US20140315933A1, “CHEMICAL COMPOUNDS” (Pfizer Limited, priority 2013, published 2014)
